Data taken from US10344037B2, “Use of the FL-one hundred eighteen core chemical structure platform to generate FL-one hundred eighteen derivatives for treatment of human disease” (priority 2014, dated 2019).

Columns and labels:
[1] = system: human EU-4 acute lymphocytic leukemia; assay: EU-4 acute lymphocytic leukemia (ALL) mouse model; format: in vivo, SCID mice; conditions: IV, q2×5
From the text: The EU-4 cells are intraperitoneally injected (5×10^6 per SCID mouse). […] Body weight changes, belly enlargement and overall mouse survival status are documented every 2-3 days throughout the experiment period.
Of note, “died with ascites” means mice at a moribund/dying state and then being euthanized. This is because moribund mice need to be euthanized based on the animal protocol rule.

[2] = molecular target: Hdm2/HdmX complex (Homo sapiens, UniProt O15151+Q00987); assay: In vitro ubiquitination assay with recombinant proteins
Sequence of Hdm2/HdmX complex (Q00987 whole entry): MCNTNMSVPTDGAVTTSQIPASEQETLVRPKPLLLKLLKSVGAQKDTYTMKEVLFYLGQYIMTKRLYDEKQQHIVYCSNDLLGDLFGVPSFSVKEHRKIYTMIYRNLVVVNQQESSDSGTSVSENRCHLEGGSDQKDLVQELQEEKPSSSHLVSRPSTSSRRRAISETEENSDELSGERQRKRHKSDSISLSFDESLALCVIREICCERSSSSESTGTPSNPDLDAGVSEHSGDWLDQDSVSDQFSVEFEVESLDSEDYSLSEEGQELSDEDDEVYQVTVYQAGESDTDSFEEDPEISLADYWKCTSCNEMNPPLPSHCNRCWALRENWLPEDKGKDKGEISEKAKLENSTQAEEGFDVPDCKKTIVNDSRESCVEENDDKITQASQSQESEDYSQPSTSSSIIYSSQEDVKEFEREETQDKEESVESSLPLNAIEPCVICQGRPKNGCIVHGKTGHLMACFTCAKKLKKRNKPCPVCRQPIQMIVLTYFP
Sequence of Hdm2/HdmX complex (O15151 whole entry): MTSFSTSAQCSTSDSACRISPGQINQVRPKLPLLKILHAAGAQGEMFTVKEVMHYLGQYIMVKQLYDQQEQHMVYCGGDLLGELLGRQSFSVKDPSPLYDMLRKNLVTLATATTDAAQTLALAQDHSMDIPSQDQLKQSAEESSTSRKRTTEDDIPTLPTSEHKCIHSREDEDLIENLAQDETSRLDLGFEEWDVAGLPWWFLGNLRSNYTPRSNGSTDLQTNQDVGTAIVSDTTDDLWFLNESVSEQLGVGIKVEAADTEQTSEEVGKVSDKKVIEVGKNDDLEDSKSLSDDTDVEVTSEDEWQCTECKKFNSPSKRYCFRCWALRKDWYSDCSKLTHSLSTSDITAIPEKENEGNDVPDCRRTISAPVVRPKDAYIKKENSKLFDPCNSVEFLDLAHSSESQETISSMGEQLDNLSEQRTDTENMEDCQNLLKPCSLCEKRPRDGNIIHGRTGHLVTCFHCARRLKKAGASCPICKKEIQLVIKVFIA
Method: The ubiquitinated p53 (Ub-p53) bands are detected as shown.
The reaction products are resolved by SDS-PAGE followed by immunoblotting with p53 antibody DO-1. For HdmX ubiquitination in vitro, reactions are performed in a 50-μl volume. After completion of the reactions, 10 μl is used for direct immunoblotting to reveal HdmX ubiquitination (a smearing pattern) with FLAG antibody. 40 μl reactions are used for denaturing with 1% SDS followed by dilution with 800 μl of 20 mM Tris, pH7.5, 0.5% NP40, and 120 mM NaCl. The processed reaction products are used for immunoprecipitation with ubiquitin antibody followed by immunoblotting for FLAG-HdmX using anti-FLAG antibodies.

CC[C@@]1(O)C(=O)OCc2c1cc1n(c2=O)Cc2cc3cc4c(cc3nc2-1)OCO4 [FL118]
ascites production and animal survival [1]: effectively inhibits ascites production and extends animal survival
Hdm2-mediated HdmX ubiquitination in vitro [2]: stimulates Hdm2-mediated HdmX ubiquitination in a concentration-dependent manner
Mdm2-MdmX mediated p53 polyubiquitination in vitro [2]: moderately inhibits
